Experiments:
[1] = target: Serine/threonine-protein kinase Sgk3 (Homo sapiens) (UniProt Q96BR1); assay: Inhibition of SGK3 at 10 uM
[2] = target: Serine/threonine-protein kinase Sgk1 (Homo sapiens) (UniProt O00141); assay: Inhibition of SGK1 at 10 uM
[3] = target: NUAK family SNF1-like kinase 1 (Homo sapiens) (UniProt O60285); assay: Inhibition of NUAK1 at 10 uM
[4] = target: Tyrosine-protein kinase Yes (Homo sapiens) (UniProt P07947); assay: Inhibition of YES1 at 10 uM
[5] = target: Mitogen-activated protein kinase kinase kinase kinase 4 (Homo sapiens) (UniProt O95819); assay: Inhibition of HGK at 10 uM
[6] = target: Insulin-like growth factor 1 receptor (Homo sapiens) (UniProt P08069); assay: Inhibition of IGF1R at 10 uM
[7] = target: Mitogen-activated protein kinase 1 (Homo sapiens) (UniProt P28482); assay: Inhibition of ERK2 at 10 uM
[8] = target: SRSF protein kinase 1 (Homo sapiens) (UniProt Q96SB4); assay: Inhibition of SRPK1 at 10 uM
SRSF protein kinase 1 (Homo sapiens), sequence (Q96SB4 whole entry): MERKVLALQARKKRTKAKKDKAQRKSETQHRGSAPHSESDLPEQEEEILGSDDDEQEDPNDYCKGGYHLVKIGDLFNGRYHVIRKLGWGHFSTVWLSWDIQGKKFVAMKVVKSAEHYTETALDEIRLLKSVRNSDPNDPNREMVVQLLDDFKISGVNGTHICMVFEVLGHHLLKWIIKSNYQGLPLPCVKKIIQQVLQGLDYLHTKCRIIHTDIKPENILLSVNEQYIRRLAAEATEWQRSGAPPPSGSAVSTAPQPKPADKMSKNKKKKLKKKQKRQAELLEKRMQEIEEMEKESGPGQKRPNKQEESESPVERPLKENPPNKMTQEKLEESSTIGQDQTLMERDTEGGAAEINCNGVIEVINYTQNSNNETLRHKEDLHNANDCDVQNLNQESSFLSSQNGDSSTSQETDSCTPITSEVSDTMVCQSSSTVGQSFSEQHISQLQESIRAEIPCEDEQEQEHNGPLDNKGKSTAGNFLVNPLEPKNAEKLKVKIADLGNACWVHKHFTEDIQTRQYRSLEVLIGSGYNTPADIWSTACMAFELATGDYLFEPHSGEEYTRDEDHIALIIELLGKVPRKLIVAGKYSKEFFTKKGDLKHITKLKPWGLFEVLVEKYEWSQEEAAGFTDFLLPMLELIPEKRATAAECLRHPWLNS

[9] = target: Insulin receptor (Homo sapiens) (UniProt P06213); assay: Inhibition of INSR at 10 uM
[10] = target: Protein kinase C beta type (Homo sapiens) (UniProt P05771); assay: Inhibition of PKCbeta2 at 10 uM
Protein kinase C beta type (Homo sapiens), sequence (P05771 2-671 limits assumed): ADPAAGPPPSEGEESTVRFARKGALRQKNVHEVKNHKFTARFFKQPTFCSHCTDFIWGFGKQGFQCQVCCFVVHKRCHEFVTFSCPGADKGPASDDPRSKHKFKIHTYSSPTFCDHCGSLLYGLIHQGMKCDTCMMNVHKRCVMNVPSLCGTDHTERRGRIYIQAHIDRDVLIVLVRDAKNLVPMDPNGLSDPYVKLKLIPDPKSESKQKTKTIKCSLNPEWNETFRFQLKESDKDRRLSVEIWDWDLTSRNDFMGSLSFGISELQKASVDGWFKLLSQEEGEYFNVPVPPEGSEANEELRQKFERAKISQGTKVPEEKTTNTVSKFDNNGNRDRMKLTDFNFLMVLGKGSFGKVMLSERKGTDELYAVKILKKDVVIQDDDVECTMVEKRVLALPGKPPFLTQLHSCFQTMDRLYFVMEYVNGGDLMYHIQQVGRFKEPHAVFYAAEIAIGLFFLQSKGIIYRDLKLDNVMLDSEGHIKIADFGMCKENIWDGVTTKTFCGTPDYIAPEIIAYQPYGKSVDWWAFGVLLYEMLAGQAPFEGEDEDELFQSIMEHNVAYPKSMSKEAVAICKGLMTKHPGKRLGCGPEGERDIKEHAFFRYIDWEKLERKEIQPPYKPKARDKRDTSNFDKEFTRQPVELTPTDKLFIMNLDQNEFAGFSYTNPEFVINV

[11] = target: Aurora kinase C (Homo sapiens) (UniProt Q9UQB9); assay: Inhibition of Aurora C at 10 uM
[12] = target: Receptor tyrosine-protein kinase erbB-2 (Homo sapiens) (UniProt P04626); assay: Inhibition of ERBB2 at 10 uM
[13] = target: Ribosomal protein S6 kinase beta-1 (Homo sapiens) (UniProt P23443); assay: Inhibition of p70S6K at 10 uM
[14] = target: Homeodomain-interacting protein kinase 1 (Homo sapiens) (UniProt Q86Z02); assay: Inhibition of HIPK1 at 10 uM
Homeodomain-interacting protein kinase 1 (Homo sapiens), sequence (Q86Z02 whole entry, looked up): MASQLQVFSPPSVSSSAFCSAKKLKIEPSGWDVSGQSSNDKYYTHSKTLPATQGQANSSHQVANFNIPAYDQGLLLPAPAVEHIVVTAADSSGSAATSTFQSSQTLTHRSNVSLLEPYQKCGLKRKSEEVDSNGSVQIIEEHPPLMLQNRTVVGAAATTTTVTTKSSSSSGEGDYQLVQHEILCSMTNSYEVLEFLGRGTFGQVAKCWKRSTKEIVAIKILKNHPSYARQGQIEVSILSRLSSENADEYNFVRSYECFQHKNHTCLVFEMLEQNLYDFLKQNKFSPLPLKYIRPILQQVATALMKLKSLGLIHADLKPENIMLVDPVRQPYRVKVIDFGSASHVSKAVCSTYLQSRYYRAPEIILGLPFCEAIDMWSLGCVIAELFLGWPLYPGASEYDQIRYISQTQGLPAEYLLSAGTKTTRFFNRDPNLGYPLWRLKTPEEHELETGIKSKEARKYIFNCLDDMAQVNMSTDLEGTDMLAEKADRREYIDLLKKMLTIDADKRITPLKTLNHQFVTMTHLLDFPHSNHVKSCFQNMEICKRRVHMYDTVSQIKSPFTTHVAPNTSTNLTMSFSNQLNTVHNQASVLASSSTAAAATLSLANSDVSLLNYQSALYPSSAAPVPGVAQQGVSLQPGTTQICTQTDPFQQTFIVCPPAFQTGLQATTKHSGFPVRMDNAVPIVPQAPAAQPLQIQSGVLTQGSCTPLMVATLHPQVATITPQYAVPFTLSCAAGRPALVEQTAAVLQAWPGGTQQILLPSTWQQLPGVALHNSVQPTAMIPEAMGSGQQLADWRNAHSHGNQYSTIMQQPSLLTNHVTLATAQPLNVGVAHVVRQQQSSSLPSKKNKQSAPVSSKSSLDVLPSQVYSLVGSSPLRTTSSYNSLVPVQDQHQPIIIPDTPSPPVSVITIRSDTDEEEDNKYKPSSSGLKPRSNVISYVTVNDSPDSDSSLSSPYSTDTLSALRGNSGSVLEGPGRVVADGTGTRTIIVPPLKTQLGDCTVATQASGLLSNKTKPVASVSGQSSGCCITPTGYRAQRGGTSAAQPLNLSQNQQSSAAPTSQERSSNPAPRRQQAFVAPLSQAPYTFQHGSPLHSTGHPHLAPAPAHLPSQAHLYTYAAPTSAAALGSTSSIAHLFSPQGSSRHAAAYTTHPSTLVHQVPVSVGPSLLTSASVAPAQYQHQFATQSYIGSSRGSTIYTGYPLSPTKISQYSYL

[15] = test system: Fibroblast growth factor receptor 3 (Homo sapiens), P22607 [K650E]; assay: Inhibition of FGFR3 K650E (mutant) at 10 uM
Fibroblast growth factor receptor 3 (Homo sapiens), P22607 [K650E], sequence (P22607 whole entry K650E): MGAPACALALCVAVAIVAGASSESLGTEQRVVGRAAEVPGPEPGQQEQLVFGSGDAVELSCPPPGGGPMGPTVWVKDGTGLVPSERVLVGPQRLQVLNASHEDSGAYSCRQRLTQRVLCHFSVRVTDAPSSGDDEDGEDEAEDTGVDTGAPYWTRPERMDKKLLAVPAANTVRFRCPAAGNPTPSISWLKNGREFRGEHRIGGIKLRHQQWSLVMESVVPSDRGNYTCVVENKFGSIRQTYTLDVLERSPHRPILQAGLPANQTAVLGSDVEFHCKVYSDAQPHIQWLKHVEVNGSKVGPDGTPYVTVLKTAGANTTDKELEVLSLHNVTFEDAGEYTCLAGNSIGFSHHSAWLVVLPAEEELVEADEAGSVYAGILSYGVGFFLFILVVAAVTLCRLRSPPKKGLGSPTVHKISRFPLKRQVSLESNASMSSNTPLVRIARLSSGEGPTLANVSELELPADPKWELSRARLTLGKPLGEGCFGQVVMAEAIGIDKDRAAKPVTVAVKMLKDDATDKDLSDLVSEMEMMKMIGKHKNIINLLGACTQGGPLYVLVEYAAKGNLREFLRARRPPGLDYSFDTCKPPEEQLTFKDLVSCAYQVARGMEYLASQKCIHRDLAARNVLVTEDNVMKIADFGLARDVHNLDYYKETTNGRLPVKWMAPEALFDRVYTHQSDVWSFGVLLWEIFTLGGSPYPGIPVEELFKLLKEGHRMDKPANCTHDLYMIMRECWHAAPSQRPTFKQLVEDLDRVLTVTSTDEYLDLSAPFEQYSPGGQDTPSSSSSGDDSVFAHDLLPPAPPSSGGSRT

[16] = target: Serine/threonine-protein kinase 26 (Homo sapiens) (UniProt Q9P289); assay: Inhibition of MST4 at 10 uM
[17] = target: Dual specificity protein kinase CLK1 (Homo sapiens) (UniProt P49759); assay: Inhibition of CLK1 at 10 uM
[18] = test system: Epidermal growth factor receptor (Homo sapiens), P00533 [L861Q]; assay: Inhibition of EGFR L861Q (mutant) at 10 uM; type: protein assay
[19] = Oral bioavailability in Sprague-Dawley rat; type: ADME, organism-based; conditions: in vivo
[20] = target: PAS domain-containing serine/threonine-protein kinase (Homo sapiens) (UniProt Q96RG2); assay: Inhibition of PASK at 10 uM
[21] = target: Mitogen-activated protein kinase 14 (Homo sapiens, UniProt Q16539); assay: Inhibition of p38alpha at 10 uM
[22] = target: Tyrosine-protein kinase ITK/TSK (Homo sapiens) (UniProt Q08881); assay: Inhibition of ITK at 10 uM
[23] = target: Mitogen-activated protein kinase 13 (Homo sapiens) (UniProt O15264); assay: Inhibition of p38delta at 10 uM
[24] = test system: Platelet-derived growth factor receptor alpha (Homo sapiens), P16234 [T674I]; assay: Inhibition of PDGFRalpha T674I (mutant) at 10 uM
[25] = Metabolic stability in rat liver microsomes assessed as compound remaining at 2 uM after 45 mins by LC/MS analysis; type: ADME, Microsome; conditions: read-out: Stability
[26] = target: Dual specificity protein kinase CLK2 (Homo sapiens) (UniProt P49760); assay: Inhibition of CLK2 at 10 uM
[27] = target: SRSF protein kinase 2 (Homo sapiens) (UniProt P78362); assay: Inhibition of SRPK2 at 10 uM
[28] = test system: Tyrosine-protein kinase ABL1 (Homo sapiens), P00519 [Y253F]; assay: Inhibition of ABL1 Y253F (mutant) at 10 uM
[29] = test system: Tyrosine-protein kinase ABL1 (Homo sapiens), P00519 [T315I]; assay: Inhibition of ABL1 T315I (mutant) at 10 uM
[30] = target: Tyrosine-protein kinase Srms (Homo sapiens) (UniProt Q9H3Y6); assay: Inhibition of SRMS at 10 uM
[31] = target: Dual specificity tyrosine-phosphorylation-regulated kinase 4 (Homo sapiens) (UniProt Q9NR20); assay: Inhibition of DYRK4 at 10 uM
[32] = target: Serine/threonine-protein kinase PAK 5 (Homo sapiens) (UniProt Q9P286); assay: Inhibition of PAK7 at 10 uM
[33] = target: Mitogen-activated protein kinase 11 (Homo sapiens) (UniProt Q15759); assay: Inhibition of p38beta at 10 uM
[34] = target: Maternal embryonic leucine zipper kinase (Homo sapiens) (UniProt Q14680); assay: Inhibition of MELK at 10 uM
Maternal embryonic leucine zipper kinase (Homo sapiens), sequence (Q14680 whole entry, looked up): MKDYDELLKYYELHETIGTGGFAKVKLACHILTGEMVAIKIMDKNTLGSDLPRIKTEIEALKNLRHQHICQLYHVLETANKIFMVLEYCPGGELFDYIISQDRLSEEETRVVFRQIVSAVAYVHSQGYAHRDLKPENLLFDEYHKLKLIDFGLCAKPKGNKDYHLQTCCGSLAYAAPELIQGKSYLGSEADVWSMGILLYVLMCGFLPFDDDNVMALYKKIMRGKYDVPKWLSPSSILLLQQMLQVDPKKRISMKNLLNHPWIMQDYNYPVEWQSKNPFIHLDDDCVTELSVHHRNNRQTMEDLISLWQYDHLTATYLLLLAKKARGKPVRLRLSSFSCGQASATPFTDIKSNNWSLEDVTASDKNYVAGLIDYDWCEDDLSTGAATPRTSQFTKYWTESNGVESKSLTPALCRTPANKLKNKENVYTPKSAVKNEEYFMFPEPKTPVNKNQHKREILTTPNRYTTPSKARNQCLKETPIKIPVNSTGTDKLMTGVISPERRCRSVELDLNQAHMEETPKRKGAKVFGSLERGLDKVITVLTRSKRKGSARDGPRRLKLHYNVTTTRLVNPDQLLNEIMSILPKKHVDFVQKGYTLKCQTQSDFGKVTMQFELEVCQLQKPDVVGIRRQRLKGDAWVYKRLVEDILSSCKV

[35] = target: Vascular endothelial growth factor receptor 1 (Homo sapiens) (UniProt P17948); assay: Inhibition of FLT1 at 10 uM
[36] = target: Ephrin type-A receptor 2 (Homo sapiens) (UniProt P29317); assay: Inhibition of EPHA2 at 10 uM
[37] = target: Serine/threonine-protein kinase Chk2 (Homo sapiens) (UniProt O96017); assay: Inhibition of CHK2 at 10 uM
[38] = target: Mitogen-activated protein kinase 12 (Homo sapiens) (UniProt P53778); assay: Inhibition of p38-gamma at 10 uM
[39] = target: Calcium/calmodulin-dependent protein kinase type II subunit delta (Homo sapiens) (UniProt Q13557); assay: Inhibition of CAMK2delta at 10 uM
[40] = target: Inhibitor of nuclear factor kappa-B kinase subunit alpha (Homo sapiens) (UniProt O15111); assay: Inhibition of IKKalpha at 10 uM
[41] = test system: Tyrosine-protein kinase ABL1 (Homo sapiens), P00519 [E255K]; assay: Inhibition of ABL1 E255K (mutant) at 10 uM
[42] = Inhibition of PKA at 10 uM
[43] = target: Muscle, skeletal receptor tyrosine-protein kinase (Homo sapiens) (UniProt O15146); assay: Inhibition of MUSK at 10 uM
[44] = target: Inhibitor of nuclear factor kappa-B kinase subunit beta (Homo sapiens) (UniProt O14920); assay: Inhibition of IKK-beta at 10 uM
[45] = target: Serine/threonine-protein kinase haspin (Homo sapiens) (UniProt Q8TF76); assay: Inhibition of GSG2 at 10 uM
[46] = target: Receptor tyrosine-protein kinase erbB-4 (Homo sapiens) (UniProt Q15303); assay: Inhibition of ERBB4 at 10 uM
[47] = target: Macrophage colony-stimulating factor 1 receptor (Homo sapiens) (UniProt P07333); assay: Inhibition of CSF1R at 10 uM
[48] = target: Protein kinase C delta type (Homo sapiens) (UniProt Q05655); assay: Inhibition of PKCdelta at 10 uM

Serine/threonine-protein kinase Sgk3 (Homo sapiens), sequence (Q96BR1 whole entry): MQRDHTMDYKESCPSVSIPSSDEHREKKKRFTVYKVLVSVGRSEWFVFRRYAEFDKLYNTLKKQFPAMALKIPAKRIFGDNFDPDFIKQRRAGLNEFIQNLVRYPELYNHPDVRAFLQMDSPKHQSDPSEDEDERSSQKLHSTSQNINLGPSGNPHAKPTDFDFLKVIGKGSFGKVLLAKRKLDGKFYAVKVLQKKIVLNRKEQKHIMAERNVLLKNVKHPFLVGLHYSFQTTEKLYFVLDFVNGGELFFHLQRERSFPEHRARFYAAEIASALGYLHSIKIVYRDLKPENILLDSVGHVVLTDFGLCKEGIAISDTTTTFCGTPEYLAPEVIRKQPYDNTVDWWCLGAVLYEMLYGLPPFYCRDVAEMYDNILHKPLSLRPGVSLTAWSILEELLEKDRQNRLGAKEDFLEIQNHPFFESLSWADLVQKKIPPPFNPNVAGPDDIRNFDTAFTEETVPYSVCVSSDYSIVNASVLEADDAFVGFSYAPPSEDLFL
Tyrosine-protein kinase Yes (Homo sapiens), sequence (P07947 2-543 limits assumed): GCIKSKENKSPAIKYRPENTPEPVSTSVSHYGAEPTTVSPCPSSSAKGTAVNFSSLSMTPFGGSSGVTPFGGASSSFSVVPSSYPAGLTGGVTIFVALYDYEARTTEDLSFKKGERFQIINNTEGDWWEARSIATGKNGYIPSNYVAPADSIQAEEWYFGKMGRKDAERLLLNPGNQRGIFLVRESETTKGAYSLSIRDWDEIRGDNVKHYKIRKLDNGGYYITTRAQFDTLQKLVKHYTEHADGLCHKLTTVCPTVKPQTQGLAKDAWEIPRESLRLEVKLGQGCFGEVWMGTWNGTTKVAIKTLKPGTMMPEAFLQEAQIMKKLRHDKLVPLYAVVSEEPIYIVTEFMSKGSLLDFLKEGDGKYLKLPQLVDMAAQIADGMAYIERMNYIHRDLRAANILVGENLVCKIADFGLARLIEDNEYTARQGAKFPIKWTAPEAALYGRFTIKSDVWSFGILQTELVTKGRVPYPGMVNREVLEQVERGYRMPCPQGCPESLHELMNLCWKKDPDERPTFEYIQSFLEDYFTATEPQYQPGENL

inhibition [1]: < 50%
inhibition [2]: < 50%
inhibition [3]: < 50%
inhibition [4]: < 50%
inhibition [5]: < 50%
inhibition [6]: < 50%
inhibition [7]: < 50%
inhibition [8]: < 50%
inhibition [9]: < 50%
inhibition [10]: < 50%
inhibition [11]: < 50%
inhibition [12]: < 50%
inhibition [13]: < 50%
inhibition [14]: < 50%
inhibition [15]: < 50%
inhibition [16]: < 50%
inhibition [17]: < 50%
inhibition [18]: < 50%
bioavailability [19]: 91%
inhibition [20]: < 50%
inhibition [21]: 100%
inhibition [22]: < 50%
inhibition [23]: < 50%
inhibition [24]: < 50%
remaining at 0.75 h, 2 µM [25]: 53%
inhibition [26]: < 50%
inhibition [27]: < 50%
inhibition [28]: < 50%
inhibition [29]: < 50%
inhibition [30]: < 50%
inhibition [31]: < 50%
inhibition [32]: < 50%
inhibition [33]: 99%
inhibition [34]: < 50%
inhibition [35]: < 50%
inhibition [36]: < 50%
inhibition [37]: < 50%
inhibition [38]: < 50%
inhibition [39]: < 50%
inhibition [40]: < 50%
inhibition [41]: < 50%
inhibition [42]: < 50%
inhibition [43]: < 50%
inhibition [44]: < 50%
inhibition [45]: < 50%
inhibition [46]: < 50%
inhibition [47]: < 50%
inhibition [48]: < 50%
Structure (SMILES): Cc1cc(OCc2ccc(F)cc2F)c(Br)c(=O)n1Cc1ccc(CN(C)C)cc1
